Series [1] in a line: CYP reaction phenotyping: CYP control (negative control without CYP enzymes). As to conditions: 20 min, pH 7.4. On the procedure: The reaction was initiated by the addition of NADPH, followed by incubation at 37° C.
A further series has as its target T1, OCT2 (Homo sapiens, UniProt O15244).
T1 sequence (O15244 1-555): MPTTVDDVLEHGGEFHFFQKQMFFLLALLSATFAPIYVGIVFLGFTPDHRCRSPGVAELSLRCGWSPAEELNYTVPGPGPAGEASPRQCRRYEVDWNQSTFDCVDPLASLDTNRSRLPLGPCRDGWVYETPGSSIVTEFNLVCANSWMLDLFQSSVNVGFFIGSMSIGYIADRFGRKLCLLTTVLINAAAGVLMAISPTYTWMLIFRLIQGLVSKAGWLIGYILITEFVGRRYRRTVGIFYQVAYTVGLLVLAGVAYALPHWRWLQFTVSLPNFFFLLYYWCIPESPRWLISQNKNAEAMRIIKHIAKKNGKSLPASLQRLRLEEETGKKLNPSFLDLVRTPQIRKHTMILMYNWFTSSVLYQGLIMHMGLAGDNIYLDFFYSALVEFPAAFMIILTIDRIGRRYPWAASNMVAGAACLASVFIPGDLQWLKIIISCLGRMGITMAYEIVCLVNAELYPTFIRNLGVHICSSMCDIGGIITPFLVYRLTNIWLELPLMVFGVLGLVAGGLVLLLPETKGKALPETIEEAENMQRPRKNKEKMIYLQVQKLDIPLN
Briefly: OCT2 inhibitor (IC50) assessment, MPP+ uptake in transfected HEK cells.

The next series deals with T2, MATE1 (Homo sapiens, UniProt Q96FL8).
T2 sequence (Q96FL8 1-570): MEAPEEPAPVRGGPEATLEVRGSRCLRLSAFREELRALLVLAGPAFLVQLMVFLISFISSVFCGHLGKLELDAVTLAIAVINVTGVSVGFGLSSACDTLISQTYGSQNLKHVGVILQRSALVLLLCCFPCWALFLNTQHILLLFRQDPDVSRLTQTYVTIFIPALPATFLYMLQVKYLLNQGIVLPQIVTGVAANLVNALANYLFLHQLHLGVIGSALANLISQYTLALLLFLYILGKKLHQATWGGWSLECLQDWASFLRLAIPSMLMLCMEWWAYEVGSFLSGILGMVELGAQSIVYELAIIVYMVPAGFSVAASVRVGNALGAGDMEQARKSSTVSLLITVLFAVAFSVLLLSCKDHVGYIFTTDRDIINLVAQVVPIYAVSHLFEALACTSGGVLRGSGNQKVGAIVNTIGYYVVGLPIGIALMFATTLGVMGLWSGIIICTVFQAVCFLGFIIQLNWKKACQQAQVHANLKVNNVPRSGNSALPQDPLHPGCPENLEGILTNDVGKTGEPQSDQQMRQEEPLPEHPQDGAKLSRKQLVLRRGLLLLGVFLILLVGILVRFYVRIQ
Briefly: MATE1 inhibitor (IC50) assessment, metformin uptake in transfected HEK cells.

The next series deals with P-gp and BCRP. Briefly: P-gp and BCRP substrate assessment, bidirectional permeability in C2BBe1 cells. As to conditions: C2BBe1 cells, 10 μM probe; for recovery at 10 μM / Papp A→B at 10 µM / Papp B→A at 10 µM: human; for Papp A→B at 10 µM / Papp B→A at 10 µM: Caco-2, pH 7.4, probe digoxin (P-gp), cladribine (BCRP); for Papp A→B at 10 µM: AP-to-BL Papp; for Papp B→A at 10 µM: BL-to-AP Papp. On the procedure: The P-gp and BCRP substrate assessment was conducted in C2BBe1 cell monolayers. […] LY was co-dosed with each dosing solution at a nominal concentration of 200 μM.
The cell culture medium was aspirated, and the cell monolayers were rinsed once with HBSSg_7.4. […] For receiver samples, aliquots (300 μL) were taken at pre-selected time points. […] For donor samples, aliquots (50 μL) were taken at pre-selected time points without replacement.
Background: Caco-2 monolayers are a common model of the intestinal barrier.

The next series concerns the target MATE2K (Homo sapiens, UniProt Q86VL8). The experiment in a line: MATE2K inhibitor (IC50) assessment, metformin uptake in transfected HEK cells.
Setting [2] is: 5 μM MPP+ alone, 2 min, replicates 1, 2 and Average.
Where [3] appears, read: batch used with Sol_1, Sol_3, and Sol_4, single replicates.
Where [4] appears, read: batch used with Sol_2, single replicates.
Setting [5] is: 50 μM Metformin alone, 10 min, HBSSg_8.5, replicates and Average.
Where [6] appears, read: absence of TUDCA and PB or positive inhibitor.
[7] abbreviates: 50 μM Metformin alone, 10 min, HBSSg_8.5, replicates 1, 2 and Average.

Each structure is given as a SMILES string. Values joined by “and” are separate entries in the source; they are usually repeats but may differ in a detail not shown here. Equal entries are not always repeated.

MATE2K, sequence (Q86VL8 1-566 isoform Q86VL8-3): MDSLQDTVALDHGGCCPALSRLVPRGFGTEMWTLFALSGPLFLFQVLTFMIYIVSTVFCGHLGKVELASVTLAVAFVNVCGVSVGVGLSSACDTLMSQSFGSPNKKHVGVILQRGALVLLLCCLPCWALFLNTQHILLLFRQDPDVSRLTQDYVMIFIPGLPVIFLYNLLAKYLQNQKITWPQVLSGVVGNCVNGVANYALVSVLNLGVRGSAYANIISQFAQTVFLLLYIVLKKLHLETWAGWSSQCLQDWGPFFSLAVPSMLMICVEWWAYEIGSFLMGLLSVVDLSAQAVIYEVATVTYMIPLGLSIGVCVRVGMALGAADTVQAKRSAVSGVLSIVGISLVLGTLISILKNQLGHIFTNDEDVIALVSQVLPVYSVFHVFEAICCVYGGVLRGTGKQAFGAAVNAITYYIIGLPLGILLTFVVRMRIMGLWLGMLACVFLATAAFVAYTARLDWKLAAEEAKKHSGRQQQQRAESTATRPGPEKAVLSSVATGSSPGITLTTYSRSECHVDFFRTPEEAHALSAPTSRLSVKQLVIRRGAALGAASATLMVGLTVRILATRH

On to `CCN(CC)Cc1cc(Nc2ccnc3cc(Cl)ccc23)ccc1O` [Amodiaquine], for which the “Measured Metabolite” value in series [1] amounted to 0 µM.
With `C[n+]1ccc(-c2ccccc2)cc1` [MPP+, 1-methyl-4-phenylpyridinium], the “Net Influx Rate of MPP+ (OCT2)” value at OCT2 (5 μM MPP+ alone) is 847 pmol/mg protein/minute. For the same compound, the “influx rate ratio of MPP+ (OCT2 over vector control)” value is 48.9 at OCT2 (5 μM MPP+ alone, 2 min); 48.9 on OCT2 (absence of TUDCA and PB or imipramine). In addition, on OCT2 (setting [2]), the “Influx Rate of MPP+, OCT2-HEK Cells” value is 896 pmol/mg protein/minute and 833 pmol/mg protein/minute. For the same compound, the “Influx Rate of MPP+, Vector Control Cells” value on OCT2 (setting [2]) is 19.0 pmol/mg protein/minute and 16.3 pmol/mg protein/minute.
Take `CN/C(=N/CCSCc1nc[nH]c1C)NC#N` [cimetidine]: on MATE1 (50 μM Metformin + 100 μM Cimetidine), the “Percentage Inhibition of MATE1” value is recorded as 99.2%. Besides, the “inhibition of metformin uptake in MATE1-transfected cells” value against MATE1 (known inhibitor) amounted to 99.2%.
The term Papp A→B denotes how fast a substance crosses the layer from the apical side. What is called Papp B→A is the apparent permeability from the basolateral to the apical side of a cell layer. As to `C[C@H]1O[C@@H](O[C@H]2[C@@H](O)C[C@H](O[C@H]3[C@@H](O)C[C@H](O[C@H]4CC[C@@]5(C)[C@H](CC[C@@H]6[C@@H]5C[C@@H](O)[C@]5(C)[C@@H](C7=CC(=O)OC7)CC[C@]65O)C4)O[C@@H]3C)O[C@@H]2C)C[C@H](O)[C@@H]1O` [digoxin], the “AP-to-BL Papp” value was 0.350 10^−6 cm/s and 0.234 10^−6 cm/s with P-gp and BCRP (setting [3]); 0.381 10^−6 cm/s and 0.298 10^−6 cm/s with P-gp and BCRP (setting [4]). The “AP-to-BL Recovery” value with P-gp and BCRP (setting [3]) worked out at 95.3%; with P-gp and BCRP (setting [4]), 92.4%. In addition, the “BL-to-AP Papp” value in the series on P-gp and BCRP (setting [3]) was 14.6 10^−6 cm/s and 11.2 10^−6 cm/s; in the series on P-gp and BCRP (setting [4]), 12.1 10^−6 cm/s and 12.8 10^−6 cm/s. The “BL-to-AP Recovery” value with P-gp and BCRP (setting [3]) was 94.9% and 83.1%; in the series with P-gp and BCRP (setting [4]), 96.7% and 90.2%. Moreover, the recovery at 10 μM was 89.5% in the series with P-gp and BCRP (Caco-2, pH 7.4, AP-to-BL Recovery, batch used with Sol_1, Sol_3, and Sol_4, Average); 90.9% in the series on P-gp and BCRP (Caco-2, pH 7.4, AP-to-BL Recovery, batch used with Sol_1, Sol_3, and Sol_4, single replicates); 86.3% with P-gp and BCRP (Caco-2, pH 7.4, AP-to-BL Recovery, batch used with Sol_2, Average); 77.9% with P-gp and BCRP (Caco-2, pH 7.4, AP-to-BL Recovery, batch used with Sol_2, single replicates); 87.4% in the series on P-gp and BCRP (Caco-2, pH 7.4, BL-to-AP Recovery, batch used with Sol_1, Sol_3, and Sol_4, Average); 84.1% in the series with P-gp and BCRP (Caco-2, pH 7.4, BL-to-AP Recovery, batch used with Sol_1, Sol_3, and Sol_4, single replicates). Moreover, the recovery at 10 μM with P-gp and BCRP (Caco-2, pH 7.4, BL-to-AP Recovery, batch used with Sol_2, Average) is 92.1%; in the series on P-gp and BCRP (Caco-2, pH 7.4, BL-to-AP Recovery, batch used with Sol_2, single replicates) it was 89.5%. In addition, the Papp A→B at 10 µM with P-gp and BCRP (setting [3]) is 0.326 ×10⁻⁶ cm/s; with P-gp and BCRP (batch used with Sol_2, Average), 0.334 ×10⁻⁶ cm/s; in the series on P-gp and BCRP (setting [4]) it was 0.323 ×10⁻⁶ cm/s. The Papp B→A at 10 µM in the series with P-gp and BCRP (batch used with Sol_1, Sol_3, and Sol_4, Average) is 12.6 ×10⁻⁶ cm/s; with P-gp and BCRP (setting [3]), 12.1 ×10⁻⁶ cm/s; in the series on P-gp and BCRP (batch used with Sol_2, Average), 12.8 ×10⁻⁶ cm/s; in the series on P-gp and BCRP (setting [4]), 13.5 ×10⁻⁶ cm/s.
As for `CN(C)C(=N)N=C(N)N` [metformin], at MATE1 (50 μM Metformin alone), the “Net Influx Rate of Metformin (MATE1)” value came to 572 pmol/mg protein/minute and the “influx rate ratio of metformin (MATE1 over vector control)” value is listed as 43.4. For the same compound, at MATE1 (setting [5]), the “Influx Rate of Metformin, MATE1-HEK Cells” value is 515 pmol/mg protein/minute and 656 pmol/mg protein/minute; the “Influx Rate of Metformin, Vector Control Cells” value is 15.6 pmol/mg protein/minute and 11.3 pmol/mg protein/minute. Moreover, the “influx rate ratio of metformin (MATE1 over vector control)” value at MATE1 (setting [6]) came out at 43.4. On MATE2K (50 μM Metformin alone), the “Net Influx Rate of Metformin (MATE2K)” value was 36.1 pmol/mg protein/minute and the “influx rate ratio of metformin (MATE2K over vector control)” value worked out at 2.70. Besides, at MATE2K (setting [7]), the “Influx Rate of Metformin, MATE2K HEK Cells” value was 54.5 pmol/mg protein/minute and 60.2 pmol/mg protein/minute; the “Influx Rate of Metformin, Vector Control Cells” value is 19.6 pmol/mg protein/minute and 22.8 pmol/mg protein/minute. For the same compound, the “influx rate ratio of metformin (MATE2K over vector control)” value on MATE2K (setting [6]) was 2.70.

Source of the values: patent US20230277630A1, “METHODS AND COMPOSITIONS FOR TREATING AMYOTROPHIC LATERAL SCLEROSIS” (Amylyx Pharmaceuticals, Inc., priority 2022, published 2023).
